Each block holds one molecule with its values, some of them ahead of it.
Assays:
KM12 = assay: NCI60 five-dose screen; assay type: cell-based; settings: Homo sapiens, KM12, colon cancer; for CC50: read-out: LC50 (the source's name)
NCI-H522 = assay: NCI60 five-dose screen; assay type: cell-based; settings: Homo sapiens, NCI-H522, NSC lung cancer; for CC50: read-out: LC50 (the source's name)
CCRF-CEM = assay: NCI60 five-dose screen; assay type: cell-based; settings: Homo sapiens, leukemia; for CC50: read-out: LC50 (the source's name)
UACC-257 = assay: NCI60 five-dose screen; assay type: cell-based; settings: Homo sapiens, UACC-257, melanoma; for CC50: read-out: LC50 (the source's name)
SF-268 = assay: NCI60 five-dose screen; assay type: cell-based; settings: Homo sapiens, SF-268, CNS cancer; for CC50: read-out: LC50 (the source's name)
OVCAR-5 = assay: NCI60 five-dose screen; assay type: cell-based; settings: Homo sapiens, OVCAR-5, ovarian cancer; for CC50: read-out: LC50 (the source's name)
HL-60 (TB) = assay: NCI60 five-dose screen; assay type: cell-based; settings: Homo sapiens, leukemia; for CC50: read-out: LC50 (the source's name)
NCI-H322M = assay: NCI60 five-dose screen; assay type: cell-based; settings: Homo sapiens, NSC lung cancer; for CC50: read-out: LC50 (the source's name)
UO-31 = assay: NCI60 five-dose screen; assay type: cell-based; settings: Homo sapiens, UO-31, renal cancer; for CC50: read-out: LC50 (the source's name)
SK-MEL-28 = assay: NCI60 five-dose screen; assay type: cell-based; settings: Homo sapiens, SK-MEL-28, melanoma; for CC50: read-out: LC50 (the source's name)
T-47D = assay: NCI60 five-dose screen; assay type: cell-based; settings: Homo sapiens, T47D, breast cancer; for CC50: read-out: LC50 (the source's name)
SF-295 = assay: NCI60 five-dose screen; assay type: cell-based; settings: Homo sapiens, SF-295, CNS cancer; for CC50: read-out: LC50 (the source's name)
MDA-MB-231/ATCC = assay: NCI60 five-dose screen; assay type: cell-based; settings: Homo sapiens, breast cancer; for CC50: read-out: LC50 (the source's name)
NCI/ADR-RES = assay: NCI60 five-dose screen; assay type: cell-based, human; settings: Homo sapiens, ovarian cancer; for CC50: read-out: LC50 (the source's name)
HS 578T = assay: NCI60 five-dose screen; assay type: cell-based; settings: Homo sapiens, breast cancer; for CC50: read-out: LC50 (the source's name)
Human CYP19 (aromatase) = molecular target: T1, Human CYP19 (aromatase) (Homo sapiens, UniProt P11511); assay: Aromatase inhibition assay (DBF fluorometric substrate); assay type: biochemical; settings: active defined as IC50 < 12.5 µM
T1 construct: purchased GENTEST, Woburn, MA 456260; host or cells: baculovirus/insect cells
T1 sequence (P11511 1-503): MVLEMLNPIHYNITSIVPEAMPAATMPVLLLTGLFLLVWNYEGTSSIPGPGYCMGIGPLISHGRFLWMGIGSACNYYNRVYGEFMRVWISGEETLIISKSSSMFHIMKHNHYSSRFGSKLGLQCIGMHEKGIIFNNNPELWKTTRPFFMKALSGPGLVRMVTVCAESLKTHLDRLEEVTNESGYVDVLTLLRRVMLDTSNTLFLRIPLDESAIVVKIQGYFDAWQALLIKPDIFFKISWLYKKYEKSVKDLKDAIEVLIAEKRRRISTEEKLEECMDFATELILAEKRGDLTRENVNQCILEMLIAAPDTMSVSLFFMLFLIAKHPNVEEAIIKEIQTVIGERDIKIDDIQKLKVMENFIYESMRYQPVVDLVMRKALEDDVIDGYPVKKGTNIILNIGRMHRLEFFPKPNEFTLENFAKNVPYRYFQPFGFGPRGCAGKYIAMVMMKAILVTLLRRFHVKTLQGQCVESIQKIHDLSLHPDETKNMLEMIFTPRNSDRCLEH
Method in brief: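 Supersomes expressing human CYP19 plus oxidoreductase (baculovirus/insect cell) with fluorometric substrate DBF; cofactor mixture pre-incubated 10 min at 37 °C, reaction run 30 min at 37 °C, stopped with NaOH. Fluorescence read at ex 490/em 530 nm.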

MOLT-4 = assay: NCI60 five-dose screen; assay type: cell-based; settings: Homo sapiens, MOLT-4, leukemia; for CC50: read-out: LC50 (the source's name)
MDA-MB-468 = assay: NCI60 five-dose screen; assay type: cell-based; settings: Homo sapiens, MDA-MB-468, breast cancer; for CC50: read-out: LC50 (the source's name)
RPMI-8226 = assay: NCI60 five-dose screen; assay type: cell-based; settings: Homo sapiens, RPMI-8226, leukemia; for CC50: read-out: LC50 (the source's name)
MALME-3M = assay: NCI60 five-dose screen; assay type: cell-based; settings: Homo sapiens, melanoma; for CC50: read-out: LC50 (the source's name)
HCC-2998 = assay: NCI60 five-dose screen; assay type: cell-based; settings: Homo sapiens, HCC-2998, colon cancer; for CC50: read-out: LC50 (the source's name)
SW-620 = assay: NCI60 five-dose screen; assay type: cell-based; settings: Homo sapiens, SW-620, colon cancer; for CC50: read-out: LC50 (the source's name)
SK-OV-3 = assay: NCI60 five-dose screen; assay type: cell-based; settings: Homo sapiens, SK-OV-3, ovarian cancer; for CC50: read-out: LC50 (the source's name)
SN12C = assay: NCI60 five-dose screen; assay type: cell-based; settings: Homo sapiens, renal cancer; for CC50: read-out: LC50 (the source's name)
OVCAR-8 = assay: NCI60 five-dose screen; assay type: cell-based; settings: Homo sapiens, OVCAR-8, ovarian cancer; for CC50: read-out: LC50 (the source's name)
SNB-19 = assay: NCI60 five-dose screen; assay type: cell-based; settings: Homo sapiens, SNB-19, CNS cancer; for CC50: read-out: LC50 (the source's name)
TK-10 = assay: NCI60 five-dose screen; assay type: cell-based; settings: Homo sapiens, TK-10, renal cancer; for CC50: read-out: LC50 (the source's name)
U251 = assay: NCI60 five-dose screen; assay type: cell-based; settings: Homo sapiens, U-251, U251, CNS cancer; for CC50: read-out: LC50 (the source's name)

IC50 (Human CYP19 (aromatase)): 1.5 ± 0.3 µM
SMILES: O=C(N/N=C/c1cc(Br)c(Br)[nH]1)c1[nH]c2ccc(Br)cc2c1-c1ccccc1 [Derivative 3f, (E)-5-Bromo-N′-((4,5-dibromo-1H-pyrrol-2-yl)methylene)-3-phenyl-1H-indole-2-carbohydrazide]
GI50 (KM12): 2.46 µM
CC50 (KM12): 35.3 µM
GI50 (NCI-H522): 0.623 µM
CC50 (NCI-H522): 23.2 µM
GI50 (CCRF-CEM): 2.89 µM
CC50 (CCRF-CEM): > 100 µM
GI50 (UACC-257): 3.24 µM
CC50 (UACC-257): 45.7 µM
GI50 (SF-268): 2.57 µM
CC50 (SF-268): 65.3 µM
GI50 (OVCAR-5): 3.6 µM
CC50 (OVCAR-5): 40.2 µM
GI50 (HL-60 (TB)): 2.38 µM
CC50 (HL-60 (TB)): 88.8 µM
GI50 (NCI-H322M): 3.73 µM
CC50 (NCI-H322M): 62.8 µM
GI50 (UO-31): 1.94 µM
CC50 (UO-31): 38.5 µM
GI50 (SK-MEL-28): 5.1 µM
CC50 (SK-MEL-28): 47 µM
GI50 (T-47D): 3.84 µM
CC50 (T-47D): 74.3 µM
GI50 (SF-295): 2.2 µM
CC50 (SF-295): 26.9 µM
GI50 (MDA-MB-231/ATCC): 2.49 µM
CC50 (MDA-MB-231/ATCC): 26.3 µM
GI50 (NCI/ADR-RES): 1.14 µM
CC50 (NCI/ADR-RES): 9.73 µM
GI50 (HS 578T): 1.82 µM
CC50 (HS 578T): > 100 µM
GI50 (MOLT-4): 3.38 µM
CC50 (MOLT-4): > 100 µM
GI50 (MDA-MB-468): 2.09 µM
CC50 (MDA-MB-468): 22.8 µM
GI50 (RPMI-8226): 2.27 µM
CC50 (RPMI-8226): > 100 µM
GI50 (MALME-3M): 2.97 µM
CC50 (MALME-3M): 42.4 µM
GI50 (HCC-2998): 2.3 µM
CC50 (HCC-2998): 24 µM
GI50 (SW-620): 2.96 µM
CC50 (SW-620): 41.9 µM
GI50 (SK-OV-3): 4.76 µM
CC50 (SK-OV-3): 72.5 µM
GI50 (SN12C): 2.15 µM
CC50 (SN12C): 30.7 µM
GI50 (OVCAR-8): 1.98 µM
CC50 (OVCAR-8): 17.2 µM
GI50 (SNB-19): 3.47 µM
CC50 (SNB-19): 39.3 µM
GI50 (TK-10): 6.8 µM
CC50 (TK-10): 49.5 µM
GI50 (U251): 2.95 µM
CC50 (U251): 36 µM

IC50 (Human CYP19 (aromatase)): > 12.5 µM
aromatase inhibition (Human CYP19 (aromatase)): inactivity against aromatase
SMILES: Cn1cccc1/C=N/NC(=O)c1[nH]c2ccc(Br)cc2c1-c1ccccc1 [Derivative 3d, (E)-5-Bromo-N′-((1-methyl-1H-pyrrol-2-yl)methylene)-3-phenyl-1H-indole-2-carbohydrazide]
GI50 (KM12): 0.357 µM
CC50 (KM12): > 100 µM
GI50 (NCI-H522): 0.217 µM
CC50 (NCI-H522): > 100 µM
GI50 (CCRF-CEM): 0.429 µM
CC50 (CCRF-CEM): > 100 µM
GI50 (UACC-257): 0.416 µM
CC50 (UACC-257): > 100 µM
GI50 (SF-268): 0.547 µM
CC50 (SF-268): > 100 µM
GI50 (OVCAR-5): 0.472 µM
CC50 (OVCAR-5): > 100 µM
GI50 (HL-60 (TB)): 0.317 µM
CC50 (HL-60 (TB)): > 100 µM
GI50 (NCI-H322M): 1.98 µM
CC50 (NCI-H322M): > 100 µM
GI50 (UO-31): 0.33 µM
CC50 (UO-31): > 100 µM
GI50 (SK-MEL-28): 4.7 µM
CC50 (SK-MEL-28): > 100 µM
GI50 (T-47D): 0.344 µM
CC50 (T-47D): > 100 µM
GI50 (SF-295): 0.321 µM
CC50 (SF-295): > 100 µM
GI50 (MDA-MB-231/ATCC): 0.237 µM
CC50 (MDA-MB-231/ATCC): > 100 µM
GI50 (NCI/ADR-RES): 0.186 µM
CC50 (NCI/ADR-RES): 40.9 µM
GI50 (HS 578T): 0.22 µM
CC50 (HS 578T): > 100 µM
GI50 (MOLT-4): 0.438 µM
CC50 (MOLT-4): > 100 µM
GI50 (MDA-MB-468): 0.155 µM
CC50 (MDA-MB-468): > 100 µM
GI50 (RPMI-8226): 0.61 µM
CC50 (RPMI-8226): > 100 µM
GI50 (MALME-3M): 0.409 µM
CC50 (MALME-3M): > 100 µM
GI50 (HCC-2998): 0.402 µM
CC50 (HCC-2998): > 100 µM
GI50 (SW-620): 0.432 µM
CC50 (SW-620): > 100 µM
GI50 (SK-OV-3): 1.61 µM
CC50 (SK-OV-3): > 100 µM
GI50 (SN12C): 0.497 µM
CC50 (SN12C): > 100 µM
GI50 (OVCAR-8): 0.39 µM
CC50 (OVCAR-8): > 100 µM
GI50 (SNB-19): 0.449 µM
CC50 (SNB-19): > 100 µM
GI50 (TK-10): 1.01 µM
CC50 (TK-10): > 100 µM
GI50 (U251): 0.477 µM
CC50 (U251): > 100 µM
